Reference: ChEMBL document CHEMBL1201862, “PubChem BioAssay data set” (2004)
The source made the active and inactive calls.

How the values were obtained:
Cytochrome P450 2C9 = Cytochrome P450 2C9 (Homo sapiens, UniProt P11712)
Cytochrome P450 2C19 = Cytochrome P450 2C19 (Homo sapiens, UniProt P33261); assay: Cytochrome panel assay with activity outcomes. Panel member name: p450-cyp2c19 Compounds with AC50 equal or less than 10 uM are considered active; assay type: functional
Cytochrome P450 3A4 = Cytochrome P450 3A4 (Homo sapiens, UniProt P08684);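 further: CYP3A4 tested as one member of a cytochrome P450 panel screen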
Cytochrome P450 3A4, sequence (P08684 whole entry): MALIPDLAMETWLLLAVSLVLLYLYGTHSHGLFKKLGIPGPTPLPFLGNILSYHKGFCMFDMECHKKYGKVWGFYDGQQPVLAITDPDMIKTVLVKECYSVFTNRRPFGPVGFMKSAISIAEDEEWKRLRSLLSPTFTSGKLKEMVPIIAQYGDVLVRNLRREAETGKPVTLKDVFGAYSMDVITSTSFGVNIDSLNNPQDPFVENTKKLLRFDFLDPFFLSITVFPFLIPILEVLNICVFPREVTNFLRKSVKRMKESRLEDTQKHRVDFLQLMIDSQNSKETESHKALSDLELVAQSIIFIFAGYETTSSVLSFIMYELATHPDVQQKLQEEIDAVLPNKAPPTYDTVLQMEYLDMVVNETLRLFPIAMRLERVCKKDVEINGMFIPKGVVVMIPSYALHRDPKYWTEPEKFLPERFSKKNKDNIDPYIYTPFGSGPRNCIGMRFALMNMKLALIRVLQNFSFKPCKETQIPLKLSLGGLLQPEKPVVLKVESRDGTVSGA

[1] = Luminescence Cell-Based Dose Retest to Confirm Inhibitors of Cancer Stem Cells. [Related pubchem assays (depositor defined):AID2717, AID2721]; assay type: functional; conditions: Homo sapiens
[2] = test system: Streptococcus sp. 'group A'; assay: growth inhibition of control SK(-) GAS strain, dose response, counter-screen for streptokinase expression inhibitor project, luminescence, kanamycin, BacTiterGlo, confirmation (AID 1900); assay type: functional, organism-based
Streptococcus = assay: Group A Streptococcus viability loss, dose response, counter-screen for streptokinase expression inhibitor project, luminescence, BacTiterGlo (AID 1915); assay type: functional, organism-based;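 further: potency for reduction of bacterial viability or growth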
Streptokinase A = molecular target: T1, Streptokinase A (Streptococcus pyogenes serotype M1, UniProt P10520); assay: S. pyogenes streptokinase expression inhibitors, potency, dose response, plasminogen activation absorbance, OD405 (AID 1914); assay type: functional, Streptococcus pyogenes M1 GAS;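 further: secreted streptokinase activity via plasminogen activation per viability signal from cell pellet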
T1 sequence (P10520 whole entry): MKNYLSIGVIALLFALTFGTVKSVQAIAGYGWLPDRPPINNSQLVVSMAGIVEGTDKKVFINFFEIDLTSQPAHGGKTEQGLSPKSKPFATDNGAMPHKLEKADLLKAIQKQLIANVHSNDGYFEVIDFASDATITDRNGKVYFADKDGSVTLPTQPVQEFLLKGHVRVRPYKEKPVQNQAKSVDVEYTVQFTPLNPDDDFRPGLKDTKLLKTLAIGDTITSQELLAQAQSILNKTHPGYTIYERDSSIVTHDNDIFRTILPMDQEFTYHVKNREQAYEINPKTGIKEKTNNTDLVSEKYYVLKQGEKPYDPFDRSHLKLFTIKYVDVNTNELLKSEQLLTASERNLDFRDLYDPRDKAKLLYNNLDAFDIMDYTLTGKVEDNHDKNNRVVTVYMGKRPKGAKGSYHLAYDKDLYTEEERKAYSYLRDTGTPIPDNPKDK

[3] = inhibitors of intracellular T. cruzi replication, confirmation, NIH3T3 host cells, beta-gal luminescence (AID 2044); assay type: functional, cell-based;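 further: intracellular parasites grown in NIH/3T3 mouse fibroblasts as host cells; luminescent beta-galactosidase reporter signal from transgenic T. cruzi replicating inside host cells; inhibitors lower the luminescence signal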
[4] = cytotoxicity toward NIH3T3 fibroblasts, dose response, counter-screen, cell-based, ATP luminescence, mouse fibroblasts (AID 2010); assay type: functional;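 further: cells exposed to compound for about 90 hours before reading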

Cytochrome P450 2C9, sequence (P11712 whole entry): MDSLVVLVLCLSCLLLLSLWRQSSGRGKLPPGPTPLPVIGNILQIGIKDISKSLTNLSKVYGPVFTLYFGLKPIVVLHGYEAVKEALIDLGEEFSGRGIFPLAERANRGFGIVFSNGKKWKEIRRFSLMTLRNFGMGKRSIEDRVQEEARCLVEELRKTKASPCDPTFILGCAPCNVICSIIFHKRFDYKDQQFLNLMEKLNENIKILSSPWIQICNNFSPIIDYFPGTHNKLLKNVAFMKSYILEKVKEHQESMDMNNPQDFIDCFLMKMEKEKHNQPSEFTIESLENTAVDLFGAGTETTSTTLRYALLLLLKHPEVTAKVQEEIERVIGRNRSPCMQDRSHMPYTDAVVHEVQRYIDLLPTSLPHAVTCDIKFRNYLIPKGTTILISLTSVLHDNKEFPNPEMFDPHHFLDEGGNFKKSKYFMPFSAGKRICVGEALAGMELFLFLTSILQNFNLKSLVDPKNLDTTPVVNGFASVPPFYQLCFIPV
Cytochrome P450 2C19, sequence (P33261 whole entry): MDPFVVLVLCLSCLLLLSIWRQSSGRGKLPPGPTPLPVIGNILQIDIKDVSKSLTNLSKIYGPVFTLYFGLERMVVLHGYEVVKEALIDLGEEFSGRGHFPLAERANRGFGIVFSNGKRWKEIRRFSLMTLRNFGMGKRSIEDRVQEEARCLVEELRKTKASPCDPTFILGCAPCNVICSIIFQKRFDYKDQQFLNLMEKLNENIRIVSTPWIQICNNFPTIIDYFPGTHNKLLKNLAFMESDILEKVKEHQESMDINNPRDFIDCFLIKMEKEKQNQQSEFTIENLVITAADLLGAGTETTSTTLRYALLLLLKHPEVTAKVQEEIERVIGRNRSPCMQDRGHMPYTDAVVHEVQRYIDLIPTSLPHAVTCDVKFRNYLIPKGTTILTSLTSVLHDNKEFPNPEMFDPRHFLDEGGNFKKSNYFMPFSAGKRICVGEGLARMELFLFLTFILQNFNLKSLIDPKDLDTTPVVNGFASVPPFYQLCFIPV

## CS(=O)(=O)Nc1ccc(Cc2noc(-c3ccc4[nH]cc(CCN)c4c3)n2)cc1 [L-694247]
Cytochrome P450 2C9
  AC50: 31.6 µM (inconclusive)

## C=CCNC(=O)CC(=O)N/N=C/c1cccc(Br)c1
Cytochrome P450 2C19; read-out: AC50
  AC50: 0.2 µM (inconclusive)

## COCCn1c(=O)c(-c2ccc(F)cc2)nc2cnc(Oc3ccccc3)nc21
Cytochrome P450 2C9
  AC50: 10 µM (inconclusive)
Cytochrome P450 3A4
  AC50: 15.8 µM (inconclusive)

## O=C1C[C@H](c2ccccc2)[C@@H](c2ccc(Br)cc2)O1
Cytochrome P450 2C9
  AC50: 3.16 µM (inconclusive)

## CC(C)NC[C@@H](O)c1ccc(O)c2ncccc12
Cytochrome P450 2C19
  AC50: inconclusive

## CCN1CN=C(S)N(c2cc(C)ccc2C)C1
Cytochrome P450 2C19; read-out: AC50
  AC50: 39.8 µM (inconclusive)
Cytochrome P450 3A4
  AC50: 20 µM (inconclusive)

## CC(C)(C)C1CCc2c(C(=O)N/N=C/c3cccs3)csc2C1 (stereo unspecified)
Cytochrome P450 2C9
  AC50: 7.94 µM (inconclusive)

## O=C(CN1c2ccccc2Sc2ccccc21)NNC(=O)Nc1ccc(Cl)c(Cl)c1
[1]
  AC50: 3.05 µM (active)
[2]
  EC50: 2.45 µM (active)
Streptococcus
  EC50: 5.49 µM (active)
Streptokinase A
  EC50: > 150 µM (not active)

## COC(=O)c1[nH]c(C)c(C(=O)C2=C(O)C(=O)N(CCN(C)C)C2c2cccs2)c1C (stereo unspecified)
Cytochrome P450 2C19; read-out: AC50
  AC50: 14.1 µM (inconclusive)

## COC(=O)c1ccccc1OCC(=O)N1CCN(c2ccc(OC)cc2)CC1
Cytochrome P450 2C9
  AC50: 17.8 µM (inconclusive)

## O=C(/C=C/c1ccccc1)NC(NC(=S)Nc1cccc(Cl)c1)C(Cl)(Cl)Cl (stereo unspecified)
[3]
  EC50: 1.68 µM (active)
[4]
  EC50: > 60 µM (inconclusive)
[2]
  EC50: 3.62 µM (active)
Streptococcus
  EC50: 6.3 µM (active)
Streptokinase A
  EC50: > 150 µM (not active)

## CCOC(=O)c1c(C)n(C)c2ccc(OC(=O)c3ccco3)cc12
Cytochrome P450 2C9
  AC50: 1.12 µM (inconclusive)

## O=C(Nc1cccnc1)c1ccc2snnc2c1
Cytochrome P450 2C19; read-out: AC50
  AC50: 17.8 µM (inconclusive)
Cytochrome P450 2C9
  AC50: 25.1 µM (inconclusive)

## O=c1cnc2cncnc2n1Cc1ccc(F)cc1
Cytochrome P450 2C19; read-out: AC50
  AC50: 39.8 µM (inconclusive)
Cytochrome P450 3A4
  AC50: 20 µM (inconclusive)

## CC(=O)Nc1cccc(C(=O)OCc2ccc(C(=O)Oc3ccc(Cl)cc3)cc2)c1
Cytochrome P450 2C9
  AC50: 1.12 µM (inconclusive)

## COc1ccc2oc(-c3ccc(C)c(NC(=O)c4ccc(N5CCOCC5)c([N+](=O)[O-])c4)c3)nc2c1
Cytochrome P450 2C19; read-out: AC50
  AC50: 5.62 µM (inconclusive)
Cytochrome P450 2C9
  AC50: 3.16 µM (inconclusive)

## O=C(O)C1CCCN1C(=O)OCc1ccccc1 (stereo unspecified)
Cytochrome P450 2C19; read-out: AC50
  AC50: 15.8 µM (inconclusive)

## CS(=O)(=O)Nc1cccc(-c2ccc3ncnc(NC4CC4)c3c2)c1
Cytochrome P450 2C19
  AC50: inconclusive

## O=S1(=O)[C@@H](c2ccccc2)[C@H](N2CCCCC2)[C@H]1[C@H]1C[C@H]2c3ccccc3[C@@H]1c1ccccc12
Cytochrome P450 2C9
  AC50: 7.94 µM (inconclusive)

## Cn1c(SCC(=O)NC2CC2)nnc1-c1cccc(NC(=O)c2ccccc2F)c1
Cytochrome P450 2C9
  AC50: 17.8 µM (inconclusive)

## O=c1c(-c2ccc(F)c(F)c2)nc2cncnc2n1-c1ccccc1
Cytochrome P450 2C9
  AC50: 15.8 µM (inconclusive)
Cytochrome P450 3A4
  AC50: 20 µM (inconclusive)

## O=C(COc1ccc([N+](=O)[O-])cc1)NCc1ccccc1
Cytochrome P450 2C19; read-out: AC50
  AC50: 7.94 µM (inconclusive)
Cytochrome P450 2C9
  AC50: 17.8 µM (inconclusive)

## O=C(O)c1ccccc1C(=O)NCc1ccc(F)cc1
Cytochrome P450 2C19; read-out: AC50
  AC50: 28.2 µM (inconclusive)

## C[C@H]1C2=C3C(CC[C@H]4C(OCc5ccc(F)cc5C(F)(F)F)OC[C@](C)([C@@H]34)N(C(=O)OC(C)(C)C)C2)C(CO)C1CO (stereo partly specified)
Cytochrome P450 2C19; read-out: AC50
  AC50: 39.8 µM (inconclusive)
Cytochrome P450 2C9
  AC50: 39.8 µM (inconclusive)

## CC(C)(C)C(=O)Nc1cccc(-c2nc3ccccc3c(=O)o2)c1
Cytochrome P450 2C19; read-out: AC50
  AC50: 35.5 µM (inconclusive)
Cytochrome P450 3A4
  AC50: 25.1 µM (inconclusive)
